From PubChem BioAssay (NCI)
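Briefly, cells in 96-well plates were exposed to five compound concentrations for 48 h, and endpoints were estimated by linear interpolation. The concentration for full growth arrest is given as TGI.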

How the values were obtained:
Assay in all cases: growth of human tumour cells (NCI), 48 h
[1] = test system: SN12C renal
[2] = test system: SF-268 CNS
[3] = test system: RXF 393 renal
[4] = test system: HOP-92 NSCLC
[5] = test system: OVCAR-8 ovarian
[6] = test system: TK-10 renal
[7] = test system: 786-0 renal
[8] = test system: HOP-62 NSCLC
[9] = test system: SNB-75 CNS
[10] = test system: MCF7 breast
[11] = test system: EKVX NSCLC
[12] = test system: HL-60(TB) leukemia
[13] = test system: SF-539 CNS
[14] = test system: HT29 colon
[15] = test system: COLO 205 colon
[16] = test system: HS 578T breast
[17] = test system: K-562 leukemia
[18] = test system: MOLT-4 leukemia
[19] = test system: ACHN renal
[20] = test system: U251 CNS
[21] = test system: SK-MEL-28 melanoma
[22] = test system: SF-295 CNS
[23] = test system: UACC-62 melanoma
[24] = test system: NCI-H460 lung
[25] = test system: NCI/ADR-RES ovarian
[26] = test system: MALME-3M melanoma
[27] = test system: HCC-2998 colon
[28] = test system: OVCAR-4 ovarian
[29] = test system: UACC-257 melanoma
[30] = test system: IGROV1 ovarian
[31] = test system: SK-OV-3 ovarian
[32] = test system: UO-31 renal
[33] = test system: MDA-MB-231 breast
[34] = test system: SR leukemia
[35] = test system: NCI-H522 lung
[36] = test system: MDA-N
[37] = test system: RPMI-8226 leukemia
[38] = test system: HCT-116 colon
[39] = test system: CAKI-1 renal
[40] = test system: NCI-H226 lung
[41] = test system: PC-3 prostate
[42] = test system: KM12 colon
[43] = test system: T-47D breast
[44] = test system: SK-MEL-5 melanoma
[45] = test system: OVCAR-3 ovarian
[46] = test system: A498 renal
[47] = test system: BT-549 breast
[48] = test system: HCT-15 colon
[49] = test system: A549 NSCLC
[50] = test system: SNB-19 CNS
[51] = test system: LOX IMVI melanoma
[52] = test system: MDA-MB-435
[53] = test system: DU-145 prostate
[54] = test system: NCI-H23 lung
[55] = test system: M14 melanoma
[56] = test system: CCRF-CEM leukemia
[57] = test system: SW-620 colon
[58] = test system: SK-MEL-2 melanoma
[59] = test system: OVCAR-5 ovarian

Measured: TGI

Cc1ccc(C2=Nc3cc(C)c(Cl)cc3S(=O)(=O)NN2)cc1
53 µM: [34]
90.7 µM: [12]
75.7 µM: [39]
not listed: [58] | [59]
> 100 µM: all other assays above

CCc1nc(N)nc(N)c1-c1ccc(NCCN)c([N+](=O)[O-])c1
75.8 µM: [8]
> 89.7 µM: [9]
> 82.8 µM: [18]
> 55.8 µM: [34]
> 76.3 µM: [2]
50.7 µM: [27]
> 88.8 µM: [37]
> 86.1 µM: [46]
> 51.1 µM: [35]
72.9 µM: [29]
> 78.3 µM: [10]
75.5 µM: [55]
40 µM: [44]
> 72.4 µM: [56]
40.7 µM: [26]
40.4 µM: [15]
> 100 µM: all other assays above
